According to PubChem BioAssay AID463229 (Broad Institute, 2010):

Test system: INS-1E rat beta cells, no cytokines, CellTiter-Glo ATP, 48 h
Test: cytokine-free beta-cell viability effect – INS-1E rat cells, ATP luminescence, cherry pick, counter-screen for beta-cell apoptosis protection project, dose response (AID 463229)

Row | Compound | AC50
1 | Cc1ccc(C(=O)C[n+]2cc(-c3ccccc3)n3c2CCCCC3)cc1 | 6 µM
2 | COc1ccc(/C=N/Nc2cc(C)nc(-n3nc(C)cc3C)n2)cc1 | 16.1 µM
3 | CCN(CC)c1ccc(/C=N/NC(=O)c2ccco2)c(O)c1 | 2.11 µM
4 | O=C(C#Cc1ccccc1)c1ccco1 | 7.8 µM
5 | O=C(Nc1ccc(Cl)cc1)c1nc[nH]c1C(=O)NCCN(CCNC(=O)c1[nH]cnc1C(=O)Nc1ccc(Cl)cc1)CCNC(=O)c1[nH]cnc1C(=O)Nc1ccc(Cl)cc1 | 8.08 µM
6 | Nc1ccccc1C#CC(=O)c1ccccc1 | 11.9 µM
7 | OC(c1cc(-c2ccc(Cl)cc2)nc2ccccc12)C1CCCCN1 (stereo not drawn) | 15.1 µM
8 | CCCCCCCCCC[N+](C)(C)CC/C=C1/c2ccccc2Sc2ccc(Cl)cc21 | 7.99 µM
9 | Cc1ccc(NC(=O)Cc2nn(C)c(=O)c3ccccc23)cc1F | 6.97 µM
10 | Cn1c2c(c(=O)n(C)c1=O)C(C(F)(F)F)(C(F)(F)F)N=C(c1ccc(Cl)cc1)N2 | 0.56 µM
11 | CCN(CC)c1ccc(/C=N/NC(=O)c2cnccn2)c(O)c1 | 2.01 µM
12 | CN(C)c1cc[n+](CC(=O)c2ccc(-c3ccccc3)cc2)cc1 | 1.22 µM
13 | O=c1cc(CSc2ccc(Cl)cc2)nc(-c2ccccn2)[nH]1 | 11.6 µM
14 | Cc1c(C)c2cccnc2c2ncccc12 | 2.49 µM
15 | c1ccc2c(CN3CCCCCCC3)c[nH]c2c1 | 4.48 µM
16 | Cc1nc(N2CCN(C(=O)c3ccco3)CC2)c2c3c(sc2n1)CC(C)CC3 (stereo not drawn) | 5.51 µM
17 | Cc1cc(N2CCCC2=O)cc(C)c1S(=O)(=O)NCCOc1ccc(C(C)(C)C)cc1 | 3 µM
18 | Cc1cc(OCc2nc(-c3ccc(NC(=O)c4cccnc4)cc3)no2)ccc1Cl | 1.16 µM
19 | Cc1ccc2nc(/C(C#N)=C\c3ccc([N+](=O)[O-])o3)[nH]c2c1 | 2.96 µM
20 | COc1ccc(NC(=O)/C(Cl)=C(/Cl)S(=O)Cc2ccc(C)cc2)cn1 (stereo not drawn) | 1.3 µM
21 | Brc1ccc(N/N=C(/N=Nc2nn[nH]n2)c2ccccc2)cc1 | 3.51 µM
22 | Nc1ccc(Br)cc1-c1nc2ccccc2[nH]c1=O | 1.32 µM

Row | Compound | AC50
23 | Cc1cc(/C=N/n2cnnc2)c(C)n1-c1ccc(OCc2ccc(Cl)cc2)cc1 | 1.26 µM
24 | COC(=O)c1nc(-c2ccc3c(n2)C(=O)C(N)=C(OC)C3=O)c(N)c(-c2ccc(OC)c(OC)c2O)c1C | 6.46 µM
25 | COc1ccc(CCNc2ncnc3sc(C)cc23)cc1OC | 1.33 µM
26 | COc1cccc(/C=N/Nc2ccc([N+](=O)[O-])cn2)c1O | 7.78 µM
27 | Cc1cccc(NC(=O)c2ccc([N+](=O)[O-])s2)c1C | 26.1 µM
28 | Cc1ccc(C(=O)c2c(C)oc3c2C(=O)C(=O)c2ccccc2-3)cc1 | 2.92 µM
29 | CCOC(=O)N1CCC(NC(=O)C2CCCN(Cc3nc(-c4cccc(Cl)c4)oc3C)C2)CC1 (stereo not drawn) | 6.01 µM
30 | CCOC(=O)/C(=C\c1ccc(OC(F)F)cc1)C1=Nn2c(nnc2-c2ccc(Cl)cc2)SC1 | 5.5 µM
31 | CC(C)Cn1c(SCC(=O)N2CCc3ccccc3C2)nc2cc(Cl)ccc2c1=O | 6.5 µM
32 | Cc1ccc([N+](=O)[O-])cc1N(CC(=O)Nc1ccc(S(=O)(=O)Nc2cccc(C(F)(F)F)c2)cc1)S(C)(=O)=O | 4.1 µM
33 | Cc1cc(N/N=C/c2ccc(F)cc2)nc(-n2nc(C)cc2C)n1 | 20.1 µM
34 | COc1ccc(C(=O)N/N=C/c2ccccc2OC(=O)c2ccccc2)cc1 | 7.93 µM
35 | COc1cc(C(=O)Oc2ccccc2/C=N/NC(=O)c2ccc(C)c(Cl)c2)cc(OC)c1OC | 12.6 µM
36 | CCCCC(=O)NC(c1cccs1)c1cc(Cl)c2cccnc2c1O (stereo not drawn) | 5.89 µM
37 | CCCC(C)C(=O)Nc1nc(C)c(-c2csc(Nc3ccc(Cl)cc3)n2)s1 (stereo not drawn) | 3.71 µM
38 | CCCCCCOC(=O)C[N+](C)(C)CCOC1CC2CCC1(C)C2(C)C (stereo not drawn) | 4.48 µM
39 | Cc1cc2nc(NCCCO)n(CC(=O)c3cc(C(C)(C)C)c(O)c(C(C)(C)C)c3)c2cc1C | 8.83 µM
40 | CC(=O)Nc1ccc(Nc2c3ccccc3nc3ccccc23)cc1 | 7.08 µM
41 | COc1cc([N+](=O)[O-])ccc1NC(=O)CC1SC(=Nc2ccc(F)cc2)N(CCC2=CCCCC2)C1=O (stereo not drawn) | 4.23 µM
42 | COc1cccc(-c2nc(-c3ccc(NC(=O)c4cccnc4)cc3)no2)c1 | 2.14 µM
43 | O=C(Nc1cccc(C(F)(F)F)c1)Oc1ccc(Cl)c2cccnc12 | 7.64 µM
